From patent US20130288964A1, “Use of peptides for promoting wound healing” (priority 2008, published 2013)
Like-named read-outs stand apart in the source and are kept apart here. Where no end group is shown, it is not given here.

How the values were obtained:
[1] = test system: human buccal epithelial cell line TR146; test: In vitro wound healing (scratch wound closure) experiments; format: cell-based; details: for Wound closure rel. clos. ± SD: closure approx. 16 h after wounding relative to negative control, synthetic peptides in SFM, * significant
Procedure: The human buccal epithelial cell line TR146 (Rupniak et al; J Natl Cancer Inst. 1985 October; 75(4):621-35) was kindly provided by Cancer Research UK. Cells were grown in Dulbecco's modified Eagle medium with 4.5 g/l glucose (Invitrogen), 10% FCS (HyClone) and […] penicillin, […] streptomycin, and 250 ng/ml amphotericinB (Antibiotic antimyotic solution, Sigma,), at 37° C., 95% humidity and 5% CO2. Cells were maintained until near confluence and then briefly treated with 0.25% trypsin-EDTA lx (Invitrogen) to detach them, counted in a hepacytometer and seeded into new flasks or multi-well plates at the required cell density of about 1.5×10×5 cells/well.
Wound assays were performed as previously described (Matthay et al., 1993, J Cell Sci. 106 (Pt 3):869-78). In brief, cells were grown in 12-well plates until confluence, and then were serum deprived for 24 hours in keratinocyte serum free medium (SFM (Invitrogen)). In each well a scratch was made in the cellular monolayer using a sterile tip. The wounded monolayer was washed with SFM to remove cellular debris, and the following conditions were applied: • (i) Whole saliva and salivary secretions applied in 30% (v/v) in SFM. As a negative control 30% (v/v) saliva buffer was used. • (ii) (ii) rhEGF (Invitrogen) as a positive control • (iii) rp-HPLC fractions containing salivary proteins; • (iv) synthetic peptides: the experiments with isolated proteins and synthetic peptides were performed in full SFM.
The width of the wound area was determined microscopically immediately after wound creation and at approximately 16 hours after wounding. The relative closure was calculated by relating the closure to that of the negative control.
For inhibitor studies; directly after wounding cells were exposed to inhibitors of ERK1/2 (U0126, 5 μM, LC Laboratories), EGFR (AG1478, 1 μM, Calbiochem), and p38 MAPK (SB203580, 5 μM; LC Laboratories). Experiments were done in quadruplicate and analyzed using One-way ANOVA to determine significance with additional LSD post hoc test, P<0.05 was considered significant.

[2] = Candicidal activity LC50 ± SD
Procedure: 2.3 Potency of Histatin induced wound closure, stereo-specificity of Histatin 2, candidacidal activities of the different histatins. Next the potency of the different Histatins in both wound healing as their candidacidal activities was studied. Histatins are known for their antimicrobial activity.
We tested synthesized Histatins 1, 2, 3, 5 and the enantiomer of Histatin 2 (designated D-Histatin 2) on wound closure and candidacidal activities. In the test concentrations of 1, 5, 10, 30 and 50 μg/ml of the peptides were tested.

epithelial cells = test: Internalization of FITC labeled histatin in epithelial cells (microscopy); format: cell-based, human; details: FITC labeled histatin incubated two hours (data not shown)
Procedure: Microscope: Leica DM IL PLAN 4-40x magnification, 0.5 lens; camera: Leica DFC320; and acquisition software: Leica IM500. Images were quantified using Adobe Photoshop CS3. Additionally, brightness/contrast levels of the co-localization studies were altered with Adobe Photoshop CS3. FITC labeled histatin was incubated with the cells for two hours. PI was added to check for membrane disruptive dependent internalization. 100 mM Azide was used for 1 hour. Cells were trypsinized as described above. Co-localization studies were performed using Mitotracker (Invitrogen) and Lysotracker (Invitrogen) following manufacturer's instructions. In Candida Histatin 5 is internalized and associates with the energized mitochondrion. Given the abovementioned discrepancy between C. albicans and epithelial cells we were very interested whether histatins become internalized and where in the cells they accumulate. […] NaN3 inhibits the function of cytochrome c oxidase by binding irreversibly to the heme cofactor. Thus, NaN3 treatment lead us to conclude that the internalization energy dependent. […] Which, in addition to the stereo-specificity, is indicating a receptor mediated process. We used mitochondria and acidic lysosome specific markers to elucidate histatin's fate once it is internalized

| Compound | relative wound closure ([1]; peptide concentration 1*10-3 μM, 1 = no peptide added (FIG. 4)) | Wound closure rel. clos. ± SD [1] | induction of wound closure ([1]; synthesized peptides, 1-50 μg/ml) | optimal concentration for wound closure ([1]; tested at 1, 5, 10, 30 and 50 μg/ml) | CC50 ([2]; 1 mM PPB) | CC50 ([2]; SFM) | internalization into epithelial cells (epithelial cells) | induction of wound closure ([1]; EGF 5 ng/ml) | induced wound closure with EGF receptor blocked ([1]; EGFR inhibitor AG1478 1 μM) | MAPK pathway dependence of induced wound closure ([1]; inhibitors U0126 5 μM (ERK1/2), SB203580 5 μM (p38 MAPK), FIG. 2) |
| --- | --- | --- | --- | --- | --- | --- | --- | --- | --- | --- |
| C-HST1: cyclic peptide having the amino acid sequence according to SEQ. ID. NO. 4, Histatin 1 (DSHEKRHHGYRRKFHEKHHSHREFPFYGDYGSNYLYDN; also: cyclic (type and places not given here)) | 1.5 |  |  |  |  |  |  |  |  |  |
| CC(C)C[C@H](NC(=O)[C@H](Cc1ccc(O)cc1)NC(=O)[C@H](CC(N)=O)NC(=O)[C@H](CO)NC(=O)[C@H](CCCNC(=N)N)NC(=O)[C@H](Cc1ccc(O)cc1)NC(=O)CNC(=O)[C@H](CCCNC(=N)N)NC(=O)[C@H](Cc1c[nH]cn1)NC(=O)[C@H](CO)NC(=O)[C@H](Cc1c[nH]cn1)NC(=O)[C@H](Cc1c[nH]cn1)NC(=O)[C@H](CCCCN)NC(=O)[C@H](CCC(=O)O)NC(=O)[C@H](Cc1c[nH]cn1)NC(=O)[C@H](Cc1ccccc1)NC(=O)[C@H](CCCCN)NC(=O)[C@H](CCCNC(=N)N)NC(=O)[C@H](CCCCN)NC(=O)[C@H](Cc1ccc(O)cc1)NC(=O)CNC(=O)[C@H](Cc1c[nH]cn1)NC(=O)[C@H](Cc1c[nH]cn1)NC(=O)[C@H](CCCNC(=N)N)NC(=O)[C@H](CCCCN)NC(=O)[C@H](C)NC(=O)[C@H](Cc1c[nH]cn1)NC(=O)[C@H](CO)NC(=O)[C@@H](N)CC(=O)O)C(=O)N[C@@H](Cc1ccc(O)cc1)C(=O)N[C@@H](CC(=O)O)C(=O)N[C@@H](CC(N)=O)C(=O)O [Histatin 3] |  | 1.21 ± 0.12* | induce wound closure | 30 to 50 µg/mL | 1.1 ± 0.1 µM | > 100 µM | are internalized |  |  |  |
| EGF: epidermal growth factor; rhEGF (Invitrogen) as a positive control |  | 1.41 ± 0.12* |  |  |  |  |  | able to induce wound closure | abolished the effect | p38^MAPK dependent |
